Reference: PubChem BioAssay (NCI)
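Interpolation was linear, between the two tested concentrations surrounding the appropriate level; five concentrations were tested over 48 hours in 96-well plates. The concentration for full growth arrest is given as TGI.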

How the values were obtained:
Experiment in all cases: DTP human tumour cell line panel, 48 h
A549 NSCLC = tested on: A549 NSCLC
ACHN renal = tested on: ACHN renal
CAKI-1 renal = tested on: CAKI-1 renal
COLO 205 colon = tested on: COLO 205 colon
HCT-116 colon = tested on: HCT-116 colon
HOP-62 NSCLC = tested on: HOP-62 NSCLC
NCI-H226 lung = tested on: NCI-H226 lung
NCI-H23 lung = tested on: NCI-H23 lung
OVCAR-4 ovarian = tested on: OVCAR-4 ovarian
OVCAR-5 ovarian = tested on: OVCAR-5 ovarian
OVCAR-8 ovarian = tested on: OVCAR-8 ovarian
RPMI-8226 leukemia = tested on: RPMI-8226 leukemia
SNB-19 CNS = tested on: SNB-19 CNS
SNB-75 CNS = tested on: SNB-75 CNS
U251 CNS = tested on: U251 CNS
UACC-62 melanoma = tested on: UACC-62 melanoma
HL-60(TB) leukemia = tested on: HL-60(TB) leukemia
K-562 leukemia = tested on: K-562 leukemia
SR leukemia = tested on: SR leukemia

CCCCCCNC(=S)N/N=C(\C)c1ccccn1
TGI (A549 NSCLC): 14.6 µM | TGI (ACHN renal): 10 µM | TGI (CAKI-1 renal): 40.4 µM | TGI (COLO 205 colon): 18.2 µM | TGI (HCT-116 colon): 15.9 µM | TGI (HOP-62 NSCLC): 14.9 µM | TGI (NCI-H226 lung): 6.28 µM | TGI (NCI-H23 lung): 18.8 µM | TGI (OVCAR-4 ovarian): 34.7 µM | TGI (OVCAR-5 ovarian): 25.9 µM | TGI (OVCAR-8 ovarian): 10.2 µM | TGI (RPMI-8226 leukemia): 9.31 µM | TGI (SNB-19 CNS): 21 µM | TGI (SNB-75 CNS): 23.9 µM | TGI (U251 CNS): 14.2 µM | TGI (UACC-62 melanoma): 6.37 µM

Clc1ccc(CCc2ccncn2)c(Cl)c1
TGI (A549 NSCLC): > 100 µM | TGI (ACHN renal): > 100 µM | TGI (CAKI-1 renal): > 100 µM | TGI (COLO 205 colon): > 100 µM | TGI (HCT-116 colon): > 100 µM | TGI (HL-60(TB) leukemia): > 100 µM | TGI (HOP-62 NSCLC): > 100 µM | TGI (K-562 leukemia): > 100 µM | TGI (NCI-H226 lung): > 100 µM | TGI (NCI-H23 lung): > 100 µM | TGI (OVCAR-4 ovarian): > 100 µM | TGI (OVCAR-5 ovarian): > 100 µM | TGI (OVCAR-8 ovarian): > 100 µM | TGI (RPMI-8226 leukemia): > 100 µM | TGI (SNB-19 CNS): > 100 µM | TGI (SNB-75 CNS): > 100 µM | TGI (U251 CNS): > 100 µM | TGI (UACC-62 melanoma): > 100 µM

CCOC(=O)[C@@H]1ON2O[C@H](OC3CCCCC3c3ccccc3)C[C@H]3OC(=O)[C@@H]1C32 (stereo partly specified)
TGI (A549 NSCLC): > 100 µM | TGI (ACHN renal): > 100 µM | TGI (CAKI-1 renal): > 100 µM | TGI (COLO 205 colon): > 100 µM | TGI (HCT-116 colon): > 100 µM | TGI (HOP-62 NSCLC): > 100 µM | TGI (K-562 leukemia): > 100 µM | TGI (NCI-H226 lung): > 100 µM | TGI (NCI-H23 lung): > 100 µM | TGI (OVCAR-5 ovarian): > 100 µM | TGI (OVCAR-8 ovarian): > 100 µM | TGI (RPMI-8226 leukemia): > 100 µM | TGI (SNB-75 CNS): > 100 µM | TGI (SR leukemia): > 100 µM | TGI (U251 CNS): > 100 µM | TGI (UACC-62 melanoma): > 100 µM

CCN(CC)CCC1(C2CCCCC2)CCC(=O)NC1=O (stereo unspecified)
TGI (A549 NSCLC): > 100 µM | TGI (ACHN renal): > 100 µM | TGI (CAKI-1 renal): > 100 µM | TGI (COLO 205 colon): > 100 µM | TGI (HCT-116 colon): > 100 µM | TGI (HOP-62 NSCLC): > 100 µM | TGI (K-562 leukemia): > 100 µM | TGI (NCI-H226 lung): > 100 µM | TGI (NCI-H23 lung): > 100 µM | TGI (OVCAR-4 ovarian): > 100 µM | TGI (OVCAR-5 ovarian): > 100 µM | TGI (OVCAR-8 ovarian): > 100 µM | TGI (RPMI-8226 leukemia): > 100 µM | TGI (SNB-19 CNS): > 100 µM | TGI (SNB-75 CNS): > 100 µM | TGI (U251 CNS): > 100 µM | TGI (UACC-62 melanoma): > 100 µM

N/C(=N\N=C\c1cc(I)cc(I)c1O)NO
TGI (A549 NSCLC): > 100 µM | TGI (ACHN renal): 74.1 µM | TGI (CAKI-1 renal): > 100 µM | TGI (COLO 205 colon): > 100 µM | TGI (HCT-116 colon): 76.2 µM | TGI (HL-60(TB) leukemia): 35.4 µM | TGI (HOP-62 NSCLC): > 100 µM | TGI (K-562 leukemia): > 100 µM | TGI (NCI-H226 lung): 44.5 µM | TGI (NCI-H23 lung): 79.3 µM | TGI (OVCAR-4 ovarian): > 100 µM | TGI (OVCAR-5 ovarian): > 100 µM | TGI (OVCAR-8 ovarian): > 100 µM | TGI (SNB-19 CNS): > 100 µM | TGI (U251 CNS): > 100 µM | TGI (UACC-62 melanoma): 95.5 µM

O=C(c1ccccc1)c1ccc2c(c1)nc1n2C(c2c(F)cccc2F)SC1 (stereo unspecified)
TGI (A549 NSCLC): > 100 µM | TGI (ACHN renal): > 100 µM | TGI (CAKI-1 renal): > 100 µM | TGI (COLO 205 colon): 46.4 µM | TGI (HCT-116 colon): 42.2 µM | TGI (HOP-62 NSCLC): > 100 µM | TGI (NCI-H226 lung): > 100 µM | TGI (NCI-H23 lung): > 100 µM | TGI (OVCAR-4 ovarian): > 100 µM | TGI (OVCAR-5 ovarian): > 100 µM | TGI (OVCAR-8 ovarian): > 100 µM | TGI (RPMI-8226 leukemia): > 100 µM | TGI (SNB-19 CNS): > 100 µM | TGI (SNB-75 CNS): 99 µM | TGI (U251 CNS): > 100 µM | TGI (UACC-62 melanoma): 72.2 µM

CCN(CC)c1ccc(C2Nc3ccc4ccccc4c3C3=C2C(=O)CCC3)cc1 (stereo unspecified)
TGI (A549 NSCLC): > 100 µM | TGI (ACHN renal): 33.6 µM | TGI (CAKI-1 renal): > 100 µM | TGI (COLO 205 colon): > 100 µM | TGI (HCT-116 colon): > 100 µM | TGI (HOP-62 NSCLC): 69.5 µM | TGI (K-562 leukemia): > 100 µM | TGI (NCI-H226 lung): > 100 µM | TGI (NCI-H23 lung): > 100 µM | TGI (OVCAR-4 ovarian): 46.4 µM | TGI (OVCAR-5 ovarian): > 100 µM | TGI (OVCAR-8 ovarian): 38.3 µM | TGI (RPMI-8226 leukemia): > 100 µM | TGI (SNB-19 CNS): > 100 µM | TGI (SNB-75 CNS): 50.5 µM | TGI (U251 CNS): 33 µM | TGI (UACC-62 melanoma): > 100 µM
